Test results from patent publication US9133525B2, “Detection of DNA sequences as risk factors for HIV infection” (priority 2012, dated 2015).

Tested on: antibiotic sensitive microorganism associated with red blood cells
Assay: PCR amplification of DNA from red blood cells of HIV-positive patients with MSP2 Primer Pairs 1 and 2, before and after long-term antibiotic treatment
Type: in vivo, human (HIV-positive patients)
Description: Standard procedures for separating RBCs from buffy coat and other peripheral blood components are known. Peripheral blood was processed on a Ficoll gradient to separate the buffy coat from red blood cells. […] This lysate was prepared by repeated freeze-thawing of red blood cells isolated from the buffy coat, strong shaking by vortex, and a low speed centrifugation (1,500 g×10 mins). A pellet and supernatant fraction were obtained and tested. The primers described above only amplified DNA in the supernatant fraction, but not in the pellet.
Five HIV-positive patients were maintained on their antiretroviral therapy, but received for at least three months a daily antibiotic treatment (azithromycin 250 mg/day or doxycycline 100 mg/day). Blood samples were fractionated to recover a red blood cell fraction on day 0 and after 3 months of antibiotic.
Blood samples were obtained from African and European Patients who were HIV-negative or HIV-positive. Red blood cells were isolated from buffy coat and other blood components by separation on a Ficoll gradient as described above. […] Similar results were obtained using the primers described in Appendix 3. […] However, amplified DNA was detected in this patient using the Primer Pairs 1 and 2 shown in Appendix 2, but the amplified DNA bands were weaker than those for chronically-infected HIV-positive patients. […]

CC[C@H]1OC(=O)[C@H](C)[C@@H](O[C@H]2C[C@@](C)(OC)[C@@H](O)[C@H](C)O2)[C@H](C)[C@@H](O[C@@H]2O[C@H](C)C[C@H](N(C)C)[C@H]2O)[C@](C)(O)C[C@@H](C)CN(C)[C@H](C)[C@@H](O)[C@]1(C)O [azithromycin]
intensity of the bands amplified using these primers (HIV-positive patients, long term antibiotic treatment for more than three months, Primer Pairs 1 and 2): decrease | amount of DNA amplified after 3 months of antibiotic treatment vs day 0 (five HIV-positive patients on antiretroviral therapy, daily azithromycin 250 mg/day or doxycycline 100 mg/day for at least three months, red blood cell fraction): significantly less
